In assay [1] the target is c-Cbl (Homo sapiens (Human), UniProt P22681). As to the kind of experiment: C-Cbl LCK Ub TR-FRET assay (C-cbl Lck HTRF). The class given is biochemical. The essentials: (§1)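 Detection reagents added, brief spin, 20 min RT. IC50 fit normalized to no-LCK (low) and DMSO (high) controls.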
The target of assay [2] is Cbl-b (Homo sapiens (Human), UniProt Q13191). As to the kind of experiment: Cbl-b LCK Ub TR-FRET assay (Cbl-b Lck HTRF). The class given is biochemical. The note with it: for IC50: Cbl-b LCK Ub TR-FRET; for fold-selectivity (Cbl-b over C-cbl): ratio C-cbl Lck HTRF IC50 / Cbl-b Lck HTRF IC50. The essentials:
as §1
Background: In TR-FRET formats the signal depends on donor and acceptor labels being close together.

Assay [3] concerns the target Human Cbl-b (residues 40-426) (Homo sapiens (Human), UniProt Q13191). The experiment in a line: Cbl-b SPR assay. The class given is binding. The note with it: for Fold of selectivity: C-cbl SPR Kd vs Cbl-b SPR Kd; for Kd: SPR, 20° C. The essentials:
(§2)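 Binding is measured by surface plasmon resonance against both isoforms, with double referencing and 1:1 kinetic fitting. Dissociation time is tuned to 4-5 half-lives.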
In general terms: SPR reads the build-up and loss of mass on a sensor chip optically.

Assay [4] has as its target c-Cbl (residues 47-435) (Homo sapiens (Human), UniProt P22681). As to the kind of experiment: c-Cbl SPR assay. In kind it is binding. The note with it: 20° C. In a few lines: as §2

c-Cbl, sequence (P22681 47-435): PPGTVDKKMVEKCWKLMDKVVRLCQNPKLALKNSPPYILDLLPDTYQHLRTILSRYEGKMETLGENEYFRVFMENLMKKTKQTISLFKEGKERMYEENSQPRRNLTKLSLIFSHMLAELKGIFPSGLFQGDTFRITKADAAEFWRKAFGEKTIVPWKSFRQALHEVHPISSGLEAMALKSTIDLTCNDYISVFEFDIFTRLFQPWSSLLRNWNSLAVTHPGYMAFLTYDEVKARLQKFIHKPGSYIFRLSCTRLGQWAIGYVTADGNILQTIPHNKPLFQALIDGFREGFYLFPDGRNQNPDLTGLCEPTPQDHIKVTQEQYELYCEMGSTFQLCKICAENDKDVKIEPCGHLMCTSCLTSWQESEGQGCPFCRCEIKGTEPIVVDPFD
c-Cbl (residues 47-435), sequence (P22681 47-435): as above
Human Cbl-b (residues 40-426), sequence (Q13191 40-426): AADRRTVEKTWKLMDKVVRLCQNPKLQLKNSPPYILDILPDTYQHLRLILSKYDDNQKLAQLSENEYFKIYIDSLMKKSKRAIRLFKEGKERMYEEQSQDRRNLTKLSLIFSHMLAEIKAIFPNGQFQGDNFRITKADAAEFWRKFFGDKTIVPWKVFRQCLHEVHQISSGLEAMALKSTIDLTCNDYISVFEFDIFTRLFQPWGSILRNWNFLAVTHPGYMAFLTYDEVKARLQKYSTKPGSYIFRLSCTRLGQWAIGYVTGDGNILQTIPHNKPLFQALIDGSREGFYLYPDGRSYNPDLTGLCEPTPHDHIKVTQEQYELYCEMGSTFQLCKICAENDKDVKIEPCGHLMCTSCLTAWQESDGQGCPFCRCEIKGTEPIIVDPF
Cbl-b, sequence (Q13191 40-426): as above

The term IC50 denotes the concentration needed to halve the response being measured. A high value points to a need for much substance. As a reminder, the Kd is the equilibrium constant for the complex coming apart. `CCO[C@H]1C[C@@](c2cccc(N3Cc4c(cc(CNC5(C)CCC5)cc4C(F)(F)F)C3=O)c2)(c2nncn2C)C1` [Compound 178, 2-(3-((1s,3s)-3-ethoxy-1-(4-methyl-4H-1,2,4-triazol-3-yl)cyclobutyl)phenyl)-6-(((1-methylcyclobutyl)amino)methyl)-4-(trifluoromethyl)isoindolin-1-one]: half-maximal inhibition in assay [1] (IC50) was put at 85 nM. Besides, in assay [2], the IC50 came out at 33 nM and the “fold-selectivity (Cbl-b over C-cbl)” value is recorded as 2.5x. Further, in assay [3], the Fold of selectivity is recorded as 4.6× and the affinity, expressed as Kd, was 5.8 nM. For the same compound, the Kd in assay [4] is 30 nM.
As for `CCO[C@H]1C[C@](c2cccc(N3Cc4c(cc(CNC5(C)CCC5)cc4C(F)(F)F)C3=O)c2)(c2nncn2C)C1` [Compound 179, 2-(3-((1r,3r)-3-ethoxy-1-(4-methyl-4H-1,2,4-triazol-3-yl)cyclobutyl)phenyl)-6-(((1-methylcyclobutyl)amino)methyl)-4-(trifluoromethyl)isoindolin-1-one], the IC50 in assay [1] turned out to be 110 nM. For the same compound, in assay [2], the IC50 worked out at 30 nM and the “fold-selectivity (Cbl-b over C-cbl)” value is on record as 3.4x. In addition, in assay [3], the Fold of selectivity is recorded as 13× and the Kd stood at 4.6 nM. The Kd in assay [4] came to 58 nM.
In the case of `CO[C@H]1C[C@](c2cccc(N3Cc4c(cc(CN5CCN(C)C[C@@H]5C(C)C)cc4C(F)(F)F)C3=O)c2)(c2nncn2C)C1` [Compound 180, 6-(((S)-2-isopropyl-4-methylpiperazin-1-yl)methyl)-2-(3-((1r,3S)-3-methoxy-1-(4-methyl-4H-1,2,4-triazol-3-yl)cyclobutyl)phenyl)-4-(trifluoromethyl)isoindolin-1-one], it took 74 nM to reach half-maximal inhibition in assay [1] (IC50). For the same compound, in assay [2], the IC50 came to 18 nM and the “fold-selectivity (Cbl-b over C-cbl)” value is on record as 3.7x. In assay [3], this compound had a Fold of selectivity of 10.2× and a Kd of 3.5 nM. The Kd in assay [4] came to 36 nM.
With `CCOc1cc(N2Cc3c(cc(CNC4(C)CCC4)cc3C(F)(F)F)C2=O)cc([C@]2(c3nncn3C)C[C@@H](C)C2)c1` [Compound 181, 2-(3-ethoxy-5-((1s,3s)-3-methyl-1-(4-methyl-4H-1,2,4-triazol-3-yl)cyclobutyl)phenyl)-6-(((1-methylcyclobutyl)amino)methyl)-4-(trifluoromethyl)isoindolin-1-one], the IC50 in assay [1] was 8.3 nM. For the same compound, in assay [2], the IC50 came out at 9.8 nM and the “fold-selectivity (Cbl-b over C-cbl)” value is reported as 0.85x. In assay [3], this compound displayed a Fold of selectivity of 2.0× and a Kd of 0.37 nM. Further, the Kd in assay [4] worked out at 0.74 nM.
For the compound `CCOc1cc(C2(c3nncn3C)CC(F)(F)C2)cc(N2Cc3c(cc(CNC4(C)CCC4)cc3C(F)(F)F)C2=O)n1` [Compound 182, 2-(4-(3,3-difluoro-1-(4-methyl-4H-1,2,4-triazol-3-yl)cyclobutyl)-6-ethoxypyridin-2-yl)-6-(((1-methylcyclobutyl)amino)methyl)-4-(trifluoromethyl)isoindolin-1-one], the IC50 in assay [1] came to 11 nM. For the same compound, in assay [2], half-maximal inhibition (IC50) was put at 11 nM and the “fold-selectivity (Cbl-b over C-cbl)” value is 1.0x. In assay [3], this compound registered a Fold of selectivity of 2.7× and a Kd of 0.35 nM. In assay [4], this compound registered a Kd of 0.85 nM.
Turning to `Cn1cnnc1[C@]1(c2cc(NC3CCCC3)cc(N3Cc4c(cc(CNC5(C)CCC5)cc4C(F)(F)F)C3=O)c2)C[C@@H](C)C1` [Compound 183, 2-(3-(cyclopentylamino)-5-((1r,3r)-3-methyl-1-(4-methyl-4H-1,2,4-triazol-3-yl)cyclobutyl)phenyl)-6-(((1-methylcyclobutyl)amino)methyl)-4-(trifluoromethyl)isoindolin-1-one], the 50% inhibitory concentration (IC50) in assay [1] was determined as 58 nM. In addition, in assay [2], 18 nM corresponded to half-maximal inhibition (IC50) and the “fold-selectivity (Cbl-b over C-cbl)” value is recorded as 3.4x. In assay [3], this compound came in with a Fold of selectivity of 5.8× and a Kd of 3.2 nM. Besides, in assay [4], binding was characterised by a dissociation constant (Kd) of 18 nM.
`Cn1cnnc1[C@]1(c2cc(OC3CCCC3)cc(N3Cc4c(cc(CNC5(C)CCC5)cc4C(F)(F)F)C3=O)c2)C[C@H](C)C1` [Compound 186, 2-(3-(cyclopentyloxy)-5-((1s,3s)-3-methyl-1-(4-methyl-4H-1,2,4-triazol-3-yl)cyclobutyl)phenyl)-6-(((1-methylcyclobutyl)amino)methyl)-4-(trifluoromethyl)isoindolin-1-one] had an IC50 in assay [1] of 100 nM. In assay [2], the IC50 was 35 nM and the “fold-selectivity (Cbl-b over C-cbl)” value is reported as 2.9x. In assay [3], this compound registered a Fold of selectivity of 5.2× and a Kd of 13 nM. This compound yielded a Kd in assay [4] of 72 nM.
In assay [1], `Cn1cnnc1C1(c2cc(NCCC#N)nc(N3Cc4c(cc(CNC5(C)CCC5)cc4C(F)(F)F)C3=O)c2)CC2(COC2)C1` [Compound 187, 3-((4-(6-(4-methyl-4H-1,2,4-triazol-3-yl)-2-oxaspiro[3.3]heptan-6-yl)-6-(6-(((1-methylcyclobutyl)amino)methyl)-1-oxo-4-(trifluoromethyl)isoindolin-2-yl)pyridin-2-yl)amino)propanenitrile] returned an IC50 of 22 nM. In assay [2], half-maximal inhibition (IC50) was put at 11 nM and the “fold-selectivity (Cbl-b over C-cbl)” value is 1.0x. For the same compound, in assay [3], the Fold of selectivity is on record as 15× and the Kd amounted to 0.95 nM. In addition, the Kd in assay [4] worked out at 15 nM.
In assay [1], `Cn1cnnc1C1(c2cc(NC3CCCC3)nc(N3Cc4c(cc(CNC5(C)CCC5)cc4C(F)(F)F)C3=O)c2)CC2(COC2)C1` [Compound 188, 2-(6-(cyclopentylamino)-4-(6-(4-methyl-4H-1,2,4-triazol-3-yl)-2-oxaspiro[3.3]heptna-6-yl)pyridin-2-yl)-6-(((1-methylcyclobutyl)amino)methyl)-4-(trifluoromethyl)isoindolin-1-one] showed a 50% inhibitory concentration (IC50) of 180 nM. Besides, in assay [2], the IC50 was 16 nM and the “fold-selectivity (Cbl-b over C-cbl)” value was found to be 11x. In assay [3], this compound came in with a Fold of selectivity of 22× and a Kd of 4.7 nM. This compound also had a Kd in assay [4] of 100 nM.
Turning to `CCOc1cc(N2Cc3c(cc(CNC4(C)CCC4)cc3C(F)(F)F)C2=O)cc([C@]2(c3nncn3C)C[C@H](C)C2)c1` [Compound 189, 2-(3-ethoxy-5-((1r,3r)-3-methyl-1-(4-methyl-4H-1,2,4-triazol-3-yl)cyclobutyl)phenyl)-6-(((1-methylcyclobutyl)amino)methyl)-4-(trifluoromethyl)isoindolin-1-one], inhibition in assay [1] was half-maximal at 4.1 nM (IC50). Further, in assay [2], the IC50 came to 7.2 nM and the “fold-selectivity (Cbl-b over C-cbl)” value came to 0.56x. In assay [3], the Fold of selectivity is given as 3.3× and the affinity, expressed as Kd, was 0.3 nM. This compound also displayed a dissociation constant (Kd) in assay [4] of 1 nM.
In the case of `CO[C@H]1C[C@@](c2cccc(N3Cc4c(cccc4C(F)(F)F)C3=O)c2)(c2nncn2C)C1` [Compound 190, 2-(3-((1s,3s)-3-methoxy-1-(4-methyl-4H-1,2,4-triazol-3-yl)cyclobutyl)phenyl)-4-(trifluoromethyl)isoindolin-1-one], in assay [1], it took 16000 nM to reach half-maximal inhibition (IC50). In addition, in assay [2], half-maximal inhibition (IC50) required 7800 nM and the “fold-selectivity (Cbl-b over C-cbl)” value is 2.0x. For the same compound, in assay [3], the Fold of selectivity is given as 2.2× and the Kd was found to be 5200 nM. Binding in assay [4] was characterised by a dissociation constant (Kd) of 11000 nM.

These data come from patent publication US12187709B2 (Genentech, Inc., priority 2021, dated 2025).
